Assays:
[1] = test system: chronic unpredictable stress (CUS) model in rats; test: Sucrose solution preference in CUS model in rats; assay type: in vivo; settings: 7 days
Experimental: (§1) The chronic unpredictable stress model is usually used as a depression model. The experimental method is as follows. Stimulation includes forced swimming (10° C., 6 min), tail clamping (1 cm from the tail tip, 1 min), water deprivation (24 h), fasting (24 h), isolated housing (24 h), tail suspension (1 h), immobility (2 h), high-speed horizontal oscillation (120 times/min, 1 h), foot shock for 45 minutes (mean 1 mA, time course 1 s, once/min). These stressors were randomly scheduled over a one-week period and repeated throughout the 23-day experiment. The non-stress control group was housed under normal conditions. Time: between 9:00 a.m. and 2:00 p.m. Since Day 15, the animals in each group were daily intragastrically administered with the subject medicament and double distilled water based on body weight (blank group and CUS model group) respectively, 60 minutes before the stress. […] Behavior and sleep electroencephalogram analyses were carried out on Day 22-23 of the stress. On Day 21, 60 minutes after the final administration, a sucrose solution intake test was carried out and sleep electroencephalogram was recorded simultaneously. On Day 22, EPM and forced swimming tests were carried out.

[2] = test system: chronic unpredictable stress (CUS) model in rats; test: Elevated plus-maze (EPM) anxiety test in CUS model in rats; assay type: in vivo; settings: for anti-anxiety-like effect: doses of 30 and 60 mg/kg
Experimental: as §1

[3] = test system: chronic unpredictable stress (CUS) model in rats; test: Forced swimming test in chronic unpredictable stress (CUS) model in rats; assay type: in vivo; settings: 7 days
Experimental: as §1

[4] = test system: chronic unpredictable stress (CUS) model in rats; test: Autonomous movement in CUS model in rats; assay type: in vivo; settings: 7 days
Experimental: as §1

[5] = test system: chronic unpredictable stress (CUS) model in rats; test: Depression-like behaviors overall in CUS model in rats (forced swimming, sucrose preference, autonomous mobility); assay type: in vivo; settings: doses of 30 and 60 mg/kg
Source text: The chronic unpredictable stress model is usually used as a depression model. The experimental method is as follows. […] These stressors were randomly scheduled over a one-week period and repeated throughout the 23-day experiment. The non-stress control group was housed under normal conditions. Time: between 9:00 a.m. and 2:00 p.m. Since Day 15, the animals in each group were daily intragastrically administered with the subject medicament and double distilled water based on body weight (blank group and CUS model group) respectively, 60 minutes before the stress. Imipramine (intraperitoneally, IP) was adopted as a positive control. Behavior and sleep electroencephalogram analyses were carried out on Day 22-23 of the stress. On Day 21, 60 minutes after the final administration, a sucrose solution intake test was carried out and sleep electroencephalogram was recorded simultaneously. On Day 22, EPM and forced swimming tests were carried out. Result 1: […]

[6] = biological target: GSK-3β (Homo sapiens, UniProt P49841); test: GSK-3β activity assay (Z′-LYTE); assay type: biochemical; settings: n = 3; read-out: Mean EC50 in the inhibition of GSK-3β activity
Experimental: The GSK-3β phosphorylation level was determined by using a Z′-LYTE assay (Life Technologies). The assay was performed in a 384-well plate. The wells of the testing plate were divided into blank control wells (without the enzyme), enzyme control wells (without the testing substance), and testing wells (with the enzyme and the testing substance at various concentrations). The inhibition rate of the testing substance is expressed as: inhibition %=(E−S)/(E−B)×100, wherein E is the average emission ratio of enzyme control wells; B is the average emission ratio of blank control wells; S is the emission ratio of the testing sample wells. The median effective concentration of each compound (EC50 μM) was calculated by using the resultant inhibition rate of each sample at various concentrations.

[7] = test system: forced swimming model in mice; test: Forced swimming model in mice; assay type: in vivo
Experimental: A desperate behavior status of human beings may be simulated by an immobility status in a forced swimming model in mice. The mice were put into a cylindrical glass jar (height 20 cm, diameter 10 cm) with a water depth of 15 cm and water temperature of 25±1° C. The mice were allowed to pre-swim for 15 minutes before the experiment, and then were taken out, wiped dry at a warm place, and sent back into cages. In 24 hours, the mice received an intragastric administration; and 60 minutes after the administration, the mice were put into the above-mentioned environment. The accumulative immobility time of the mice in the jar during the 5-minute period of time after six minutes of swimming was measured. A decrease in immobility time was taken as evaluation index.

[8] = Serum AST and ALT in mice after 14 days of intragastric administration; assay type: in vivo; settings: mouse, in vivo, 60 mg/kg/day
Experimental: Blood was collected from epicanthal, stood at room temperature for about 2 hours, and centrifuged for 12 minutes at 3000 r/min after coagulation. The serum was removed and centrifuged again. Alanine transaminase (ALT) and aspartate transaminase (AST) levels were determined

[9] = test system: GSK-3β phosphorylation level; test: GSK-3β phosphorylation level in mouse brain regions (Western blot); assay type: in vivo; settings: mice
Experimental: ICR mice were intragastrically administered of subject medicaments and vehicle. One hour later, brains of those treated mice were obtained after decapitation. Prefrontal lobe cortex, hipocampus, corpus striatum and hypothalamus were isolated and collected respectively. Then protein electrophoresis (Western blot) was carried out with each sample.

[10] = test system: chronic unpredictable stress (CUS) model in rats; test: Sleep electroencephalogram in CUS depression model in rats; assay type: in vivo
Experimental: The chronic unpredictable stress model is usually used as a depression model. The experimental method is as follows. Stimulation includes forced swimming (10° C., 6 min), tail clamping (1 cm from the tail tip, 1 min), water deprivation (24 h), fasting (24 h), isolated housing (24 h), tail suspension (1 h), immobility (2 h), high-speed horizontal oscillation (120 times/min, 1 h), foot shock for 45 minutes (mean 1 mA, time course 1 s, once/min). These stressors were randomly scheduled over a one-week period and repeated throughout the 23-day experiment. The non-stress control group was housed under normal conditions. Time: between 9:00 a.m. and 2:00 p.m. Since Day 15, the animals in each group were daily intragastrically administered with the subject medicament and double distilled water based on body weight (blank group and CUS model group) respectively, 60 minutes before the stress. Imipramine (intraperitoneally, IP) was adopted as a positive control. Behavior and sleep electroencephalogram analyses were carried out on Day 22-23 of the stress. On Day 21, 60 minutes after the final administration, a sucrose solution intake test was carried out and sleep electroencephalogram was recorded simultaneously. On Day 22, EPM and forced swimming tests were carried out.
Result 3: Sleep disturbance is one of the most common symptoms of neuropsychiatry. From a view of therapeutics, sleep disturbance is one of the most distressful events in patients suffered from nervous diseases and mental illness, especially in depression, and also one of major adverse events that may exacerbate the conditions of nervous disease and mental illness and impede the recovery in patients. For example, patients who are suffering from depression associated with insomnia may have an apparently higher incidence of a suicidal behavior, as compared with a non-insomnia group. Sleep disturbance in nervous and mental diseases can be simulated by using a CUS model in rats. […] Therefore, YH-200 could be useful for treating and ameliorating sleep disturbance in a patient suffering from depression (see, Table 4).

[11] = Day 0 (baseline, before dosing)

Chain of GSK-3β (P49841 whole entry): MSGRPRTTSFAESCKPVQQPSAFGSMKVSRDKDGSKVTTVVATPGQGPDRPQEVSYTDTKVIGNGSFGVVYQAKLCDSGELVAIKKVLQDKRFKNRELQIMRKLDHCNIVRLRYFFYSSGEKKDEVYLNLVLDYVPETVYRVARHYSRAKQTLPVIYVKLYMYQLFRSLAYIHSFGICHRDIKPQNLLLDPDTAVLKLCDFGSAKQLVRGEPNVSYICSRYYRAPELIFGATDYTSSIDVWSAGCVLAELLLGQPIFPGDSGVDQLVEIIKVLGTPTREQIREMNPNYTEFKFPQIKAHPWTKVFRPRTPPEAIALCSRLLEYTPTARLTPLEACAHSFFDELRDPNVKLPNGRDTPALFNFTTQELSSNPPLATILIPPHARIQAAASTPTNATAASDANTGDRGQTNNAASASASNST

## 12-(4-ethoxy)-butoxyberbamine [reference compound]
[1]; 30 mg/kg intragastric daily
  Sucrose solution preference: 54.19 ± 4.45%
[1]; 60 mg/kg intragastric daily
  Sucrose solution preference: 53.27 ± 3.55%
[2]; 30 mg/kg intragastric daily
  Percentage of entries into open arms relative to total entries into arms: 36.6 ± 1.7%
  Percentage of residence time in open arms: 40.1 ± 4.5%
[2]; 60 mg/kg intragastric daily
  Percentage of entries into open arms relative to total entries into arms: 37.2 ± 1.3%
  Percentage of residence time in open arms: 39.2 ± 3.5%
[2]
  anti-anxiety-like effect: no anti-anxiety-like effect
[3]; 30 mg/kg intragastric daily
  Forced swimming Immobility time: 179.5 ± 6.3 s
[3]; 60 mg/kg intragastric daily
  Forced swimming Immobility time: 175.3 ± 8.4 s
[4]; 30 mg/kg intragastric daily
  Autonomous movement Distance: 1367.52 ± 683.88 mm
  Autonomous movement Speed: 4.56 ± 1.74 mm/second
[4]; 60 mg/kg intragastric daily
  Autonomous movement Distance: 935.73 ± 586.51 mm
  Autonomous movement Speed: 3.12 ± 1.31 mm/second
[5]
  amelioration effect on depression-like behaviors: no amelioration effect
[6]
  EC50: > 10 µM

## CCOc1c(OC)cc2c3c1Oc1cc4c(cc1OC)CCN(C)C4Cc1ccc(cc1)Oc1cc(ccc1OC)CC3N(C)CC2 (stereo not shown) [Compound 3, 7-ethoxy fangchinoline]
[7]; FIG. 2, n=12-15
  anti-depression effect with 5-HT1A receptor antagonist pMPPI: could be inhibited
[7]; FIG. 4, n=12-15
  reduction of immobility time and extension of immobility latency period with 5-HT2A receptor agonist DOI: could be inhibited
[1]; 7.5 mg/kg intragastric daily
  Sucrose solution preference: 82.3 ± 3.3^##,$$ %
[1]; 15 mg/kg intragastric daily
  Sucrose solution preference: 93.6 ± 4.6^##,$$ %
[1]; 30 mg/kg intragastric daily
  Sucrose solution preference: 98.1 ± 3.7^##,$$ %
[2]; 7.5 mg/kg intragastric daily
  Percentage of entries into open arms relative to total entries into arms: 57.2 ± 1.8^##,$$ %
  Percentage of residence time in open arms: 69.1 ± 2.4^##,$$ %
[2]; 15 mg/kg intragastric daily
  Percentage of entries into open arms relative to total entries into arms: 59.7 ± 2.2^##,$$ %
  Percentage of residence time in open arms: 72.3 ± 3.6^##,$$ %
[2]; 30 mg/kg intragastric daily
  Percentage of entries into open arms relative to total entries into arms: 60.2 ± 2.0^##,$$ %
  Percentage of residence time in open arms: 71.8 ± 3.2^##,$$ %
[8]
  ALT: 82.1 ± 16.4 U/L
  AST: 102.3 ± 14.5 U/L
  AST/ALT: 1.25 ± 0.18
[9]; 30 mg/kg intragastric, 1 h, hypothalamus, versus blank control
  p-GSK-3β level: evidently increased
[9]; 30 mg/kg intragastric, 1 h, prefrontal lobe cortex, hipocampus and corpus striatum
  influence on phosphorylated GSK-3β (p-GSK-3β) and total-GSK-3β: no evident influence
[9]; 60 mg/kg intragastric, 1 h, four brain sections
  total GSK-3β level: no influence
[9]; 60 mg/kg intragastric, 1 h, prefrontal lobe cortex, hipocampus, corpus striatum and hypothalamus
  p-GSK-3β level: significantly increased
[9]; FIG. 3, prefrontal lobe cortex, hipocampus, corpus striatum and hypothalamus, n=6
  enhancement of GSK-3β phosphorylation level with pMPPI given intraperitoneally 15 minutes before: could evidently inhibit
[9]; FIG. 5, prefrontal lobe cortex, hipocampus, corpus striatum and hypothalamus, n=6
  enhancement of GSK-3β phosphorylation level with 5-HT2A receptor agonist DOI: inhibited
[4]; 7.5 mg/kg intragastric daily
  Autonomous movement Distance: 13612.65 ± 792.22^##,$$ mm
  Autonomous movement Speed: 45.38 ± 2.64^##,$$ mm/second
[4]; 15 mg/kg intragastric daily
  Autonomous movement Distance: 14409.83 ± 664.54^##,$$ mm
  Autonomous movement Speed: 48.03 ± 4.02^##,$$ mm/second
[4]; 30 mg/kg intragastric daily
  Autonomous movement Distance: 14636.14 ± 812.31^##,$$ mm
  Autonomous movement Speed: 48.78 ± 5.36^##,$$ mm/second
[6]
  EC50: 0.86 µM
other
  melting point: 109.5 to 111 °C
[10]; 30 mg/kg p.o.
  effect on the sleep disturbance: evident amelioration effect
[10]; [11]
  Deep sleep (SWS) Time: 39.31 ± 10.22 min
  NREM sleep Time: 174.44 ± 8.35 min
  Rapid eye movement (REM) sleep Time: 37.95 ± 6.28 min
  Total sleep Time: 212.40 ± 12.65 min
[10]; Day 21, 30 mg/kg p.o.
  Deep sleep (SWS) Time: 48.18 ± 13.77 min
  NREM sleep Time: 165.27 ± 7.97 min
  Rapid eye movement (REM) sleep Time: 34.06 ± 1.75 min
  Total sleep Time: 199.33 ± 9.11 min

## 12-acetoxyberbamine [reference compound]
[1]; 30 mg/kg intragastric daily
  Sucrose solution preference: 54.29 ± 3.74%
[1]; 60 mg/kg intragastric daily
  Sucrose solution preference: 53.34 ± 3.04%
[2]; 30 mg/kg intragastric daily
  Percentage of entries into open arms relative to total entries into arms: 38.2 ± 1.8%
  Percentage of residence time in open arms: 41.9 ± 3.7%
[2]; 60 mg/kg intragastric daily
  Percentage of entries into open arms relative to total entries into arms: 36.8 ± 1.6%
  Percentage of residence time in open arms: 43.3 ± 3.4%
[2]
  anti-anxiety-like effect: no anti-anxiety-like effect
[3]; 30 mg/kg intragastric daily
  Forced swimming Immobility time: 179.2 ± 6.6 s
[3]; 60 mg/kg intragastric daily
  Forced swimming Immobility time: 169.9 ± 7.4 s
[4]; 30 mg/kg intragastric daily
  Autonomous movement Distance: 984.41 ± 542.67 mm
  Autonomous movement Speed: 3.28 ± 1.35 mm/second
[4]; 60 mg/kg intragastric daily
  Autonomous movement Distance: 1135.49 ± 575.54 mm
  Autonomous movement Speed: 3.78 ± 1.46 mm/second
[5]
  amelioration effect on depression-like behaviors: no amelioration effect
[6]
  EC50: > 10 µM
